In patent US20100298141A1, “SUBSTITUTED PYRIDINE N-OXIDE HERBICIDES” (E. I. DU PONT DE NEMOURS AND COMPANY, priority 2007, published 2010):

Experiments:
morningglory = assay: Test A pre-/postemergence greenhouse test; assay type: in vivo, Ipomoea spp.; details: for Morningglory plant response rating: 0 to 100 scale
Method in brief: (§1)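 Untreated controls served as the reference for visual injury ratings taken about ten days after spraying. The non-phytotoxic solvent/surfactant formulation was applied preemergence to seeded loam and sand and postemergence to plants two to ten cm high.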

yellow nutsedge = assay: Test C pre-/postemergence test; assay type: in vivo, Cyperus esculentus; details: for Plant response rating, Nutsedge, Yellow: scale 0 to 100, 0 no effect, 100 complete control
Method in brief: (§2)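 Seeds were planted and treated preemergence with test chemical in a non-phytotoxic solvent mixture containing surfactant. Postemergence applications of the same formulation went onto plants 2 to 18 cm tall (1- to 4-leaf stage). A dash marks no test result.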

woolly cupgrass = assay: Test C pre-/postemergence test; assay type: in vivo, Eriochloa villosa; details: for Plant response rating, Cupgrass, Woolly: scale 0 to 100, 0 no effect, 100 complete control
Method in brief: as §2

[1] = test system: common (oilseed) sunflower; assay: Test C pre-/postemergence test; assay type: in vivo, Helianthus annuus; details: for Sunflower plant response rating: preemergence, scale 0 (no effect) to 100 (complete control)
Method in brief: as §2

corn = assay: Test C pre-/postemergence test; assay type: in vivo, Zea mays; details: for Plant response rating, Corn: scale 0 to 100, 0 no effect, 100 complete control
Method in brief: as §2

wheat = assay: Test C pre-/postemergence test; assay type: in vivo, Triticum aestivum; details: Postemergence; for Plant response rating, Wheat: scale 0 to 100, 0 no effect, 100 complete control
Method in brief: as §2

blackgrass = assay: Test C pre-/postemergence test; assay type: in vivo, Alopecurus myosuroides; details: Postemergence; for Plant response rating, Blackgrass: scale 0 to 100, 0 no effect, 100 complete control
Method in brief: as §2

Goosegrass = assay: Test C pre-/postemergence test; assay type: in vivo, Eleusin indica; details: for Plant response rating, Goosegrass: scale 0 to 100, 0 no effect, 100 complete control
Method in brief: as §2

Italian ryegrass = assay: Test C pre-/postemergence test; assay type: in vivo, Lolium multiflorum; details: Postemergence; for Plant response rating, Ryegrass, Italian: scale 0 to 100, 0 no effect, 100 complete control
Method in brief: as §2

crabgrass = assay: Test A pre-/postemergence greenhouse test; assay type: in vivo, Digitaria sanguinalis; details: for Crabgrass, Large plant response rating: 0 to 100 scale
Method in brief: as §1

eastern black nightshade = assay: Test C pre-/postemergence test; assay type: in vivo, Solanum ptycanthum
Source text: Seeds of plant species selected from blackgrass (Alopecurus myosuroides), downy brome (Bromus tectorum), green foxtail (Setaria viridis), Italian ryegrass (Lolium multiflorum), wheat (Triticum aestivum), wild oat (Avena fatua), catchweed bedstraw (Galium aparine), Russian thistle (Salsola kali), […] (Cynodon dactylon), Surinam grass (Brachiaria decumbens), cocklebur (Xanthium strumarium), corn (Zea mays), crabgrass (Digitaria sanguinalis), woolly cupgrass (Eriochloa villosa), giant foxtail (Setaria faberii), Goosegrass (Eleusin indica), johnsongrass (Sorghum halepense), kochia (Kochia scoparia), lambsquarters (Chenopodium album), morningglory (Ipomoea coccinea), eastern black nightshade (Solanum ptycanthum), yellow nutsedge (Cyperus esculentus), pigweed (Amaranthus retroflexus), common ragweed (Ambrosia elation), soybean (Glycine max), common (oilseed) sunflower (Helianthus annuus), and velvetleaf (Abutilon theophrasti) were planted and treated preemergence with test chemicals formulated in a non-phytotoxic solvent mixture which included a surfactant. At the same time, plants selected from these crop and weed species and also winter barley (Hordeum vulgare), canarygrass (Phalaris minor), and chickweed (Stellaria media) were treated with postemergence applications of some of the test chemicals formulated in the same manner. Plants ranged in height from 2 to 18 cm (1- to 4-leaf stage) for postemergence treatments. […] At time of treatment, test pots were flooded to 3 cm above the soil surface, treated by application of test compounds directly to the paddy water, and then maintained at that water depth for the duration of the test. […] A dash (-) response means no test result.

green foxtail = assay: Test C pre-/postemergence test; assay type: in vivo, Setaria viridis; details: Postemergence; for Plant response rating, Foxtail, Green: scale 0 to 100, 0 no effect, 100 complete control
Method in brief: as §2

redroot pigweed = assay: Test A pre-/postemergence greenhouse test; assay type: in vivo, Amaranthus retroflexus; details: for Pigweed plant response rating: 0 to 100 scale
Method in brief: as §1

common ragweed = assay: Test C pre-/postemergence test; assay type: in vivo, Ambrosia elation; details: for Plant response rating, Ragweed: scale 0 to 100, 0 no effect, 100 complete control
Method in brief: as §2

wild oat = assay: Test C pre-/postemergence test; assay type: in vivo, Avena fatua; details: Postemergence; for Plant response rating, Oat, Wild: scale 0 to 100, 0 no effect, 100 complete control
Method in brief: as §2

[2] = Postemergence, 125 g ai/ha, 0 is no effect, 100 is complete control
[3] = Postemergence, 500 g ai/ha, 0 is no effect, 100 is complete control
[4] = Preemergence, 125 g ai/ha, 0 no effect, 100 complete control
[5] = Preemergence, 500 g ai/ha, 0 to 100 scale where 0 is no effect and 100 is complete control
[6] = 31 g ai/ha, Preemergence, scale 0 to 100
[7] = 62 g ai/ha, preemergence, scale 0 (no effect) to 100 (complete control)
[8] = preemergence, 125 g ai/ha, scale 0 (no effect) to 100 (complete control)

Cn1nc(C(F)(F)F)c(C[S+]([O-])c2ccc(Cl)c[n+]2[O-])c1OC(F)F (stereo not shown) [Compound 6]
Morningglory plant response rating (morningglory; [2]): 80 | Morningglory plant response rating (morningglory; [3]): 90 | Morningglory plant response rating (morningglory; [4]): 90 | Plant response rating, Morningglory (morningglory; [5]): 100 | Nutsedge, Yellow plant response rating (yellow nutsedge; [6]): 0 | Nutsedge, Yellow plant response rating (yellow nutsedge; [7]): 20 | Plant response rating (0 to 100), Nutsedge, Yellow (yellow nutsedge; Postemergence, 31 g ai/ha): 0 | Plant response rating, Nutsedge, Yellow (yellow nutsedge; Postemergence, 62 g ai/ha): 0 | Plant response rating, Nutsedge, Yellow (yellow nutsedge; Postemergence, 125 g ai/ha): 0 | Plant response rating, Nutsedge, Yellow (yellow nutsedge; Postemergence, 250 g ai/ha): 20 | Plant response rating (0 to 100), Nutsedge, Yellow (yellow nutsedge; Preemergence, 250 g ai/ha): 98 | Nutsedge, Yellow plant response rating (yellow nutsedge; [8]): 80 | Cupgrass, Woolly plant response rating (woolly cupgrass; [6]): 90 | Cupgrass, Woolly plant response rating (woolly cupgrass; [7]): 100 | Plant response rating (0 to 100), Cupgrass, Woolly (woolly cupgrass; Postemergence, 31 g ai/ha): 0 | Plant response rating, Cupgrass, Woolly (woolly cupgrass; Postemergence, 62 g ai/ha): 0 | Plant response rating, Cupgrass, Woolly (woolly cupgrass; Postemergence, 125 g ai/ha): 50 | Plant response rating, Cupgrass, Woolly (woolly cupgrass; Postemergence, 250 g ai/ha): 55 | Plant response rating (0 to 100), Cupgrass, Woolly (woolly cupgrass; Preemergence, 250 g ai/ha): 100 | Cupgrass, Woolly plant response rating (woolly cupgrass; [8]): 100 | Sunflower plant response rating ([1]; 62 g ai/ha): 0 | Plant response rating (0 to 100), Sunflower ([1]; Preemergence, 250 g ai/ha): 10 | Sunflower plant response rating ([1]; 125 g ai/ha): 5 | Corn plant response rating (corn; [6]): 0 | Corn plant response rating (corn; [7]): 60 | Plant response rating (0 to 100), Corn (corn; Postemergence, 31 g ai/ha): 0 | Plant response rating, Corn (corn; Postemergence, 62 g ai/ha): 0 | Plant response rating, Corn (corn; Postemergence, 125 g ai/ha): 0 | Plant response rating, Corn (corn; Postemergence, 250 g ai/ha): 0 | Plant response rating (0 to 100), Corn (corn; Preemergence, 250 g ai/ha): 98 | Corn plant response rating (corn; [8]): 60 | Plant response rating (0 to 100), Wheat (wheat; 31 g ai/ha): 20 | Plant response rating (0 to 100), Wheat (wheat; 62 g ai/ha): 20 | Plant response rating, Wheat (wheat; 125 g ai/ha): 20 | Plant response rating, Wheat (wheat; 250 g ai/ha): 25 | Plant response rating (0 to 100), Blackgrass (blackgrass; 31 g ai/ha): 0 | Plant response rating, Blackgrass (blackgrass; 62 g ai/ha): 50 | Plant response rating, Blackgrass (blackgrass; 125 g ai/ha): 50 | Plant response rating, Blackgrass (blackgrass; 250 g ai/ha): 50 | Goosegrass plant response rating (Goosegrass; [6]): 98 | Goosegrass plant response rating (Goosegrass; [7]): 100 | Plant response rating (0 to 100), Goosegrass (Goosegrass; Postemergence, 31 g ai/ha): 0 | Plant response rating, Goosegrass (Goosegrass; Postemergence, 62 g ai/ha): 0 | Plant response rating, Goosegrass (Goosegrass; Postemergence, 125 g ai/ha): 20 | Plant response rating, Goosegrass (Goosegrass; Postemergence, 250 g ai/ha): 45 | Plant response rating (0 to 100), Goosegrass (Goosegrass; Preemergence, 250 g ai/ha): 100 | Goosegrass plant response rating (Goosegrass; [8]): 100 | Plant response rating (0 to 100), Ryegrass, Italian (Italian ryegrass; 31 g ai/ha): 0 | Plant response rating (0 to 100), Ryegrass, Italian (Italian ryegrass; 62 g ai/ha): 50 | Plant response rating, Ryegrass, Italian (Italian ryegrass; 125 g ai/ha): 85 | Plant response rating, Ryegrass, Italian (Italian ryegrass; 250 g ai/ha): 90 | Crabgrass, Large plant response rating (crabgrass; [2]): 70 | Crabgrass, Large plant response rating (crabgrass; [3]): 90 | Crabgrass, Large plant response rating (crabgrass; [4]): 100 | Plant response rating, Crabgrass, Large (crabgrass; [5]): 100 | Nightshade plant response rating (eastern black nightshade; [7]): 98 | Plant response rating (0 to 100), Nightshade (eastern black nightshade; Preemergence, 250 g ai/ha): 100 | Plant response rating (0 to 100), Foxtail, Green (green foxtail; 31 g ai/ha): 30 | Plant response rating, Foxtail, Green (green foxtail; 62 g ai/ha): 55 | Plant response rating, Foxtail, Green (green foxtail; 125 g ai/ha): 70 | Plant response rating, Foxtail, Green (green foxtail; 250 g ai/ha): 70 | Pigweed plant response rating (redroot pigweed; [2]): 100 | Pigweed plant response rating (redroot pigweed; [3]): 100 | Pigweed plant response rating (redroot pigweed; [4]): 100 | Plant response rating, Pigweed (redroot pigweed; [5]): 100 | Ragweed plant response rating (common ragweed; [6]): 0 | Ragweed plant response rating (common ragweed; [7]): 0 | Plant response rating (0 to 100), Ragweed (common ragweed; Postemergence, 31 g ai/ha): 0 | Plant response rating (0 to 100), Ragweed (common ragweed; Postemergence, 62 g ai/ha): 0 | Plant response rating, Ragweed (common ragweed; Postemergence, 125 g ai/ha): 10 | Plant response rating, Ragweed (common ragweed; Postemergence, 250 g ai/ha): 50 | Plant response rating (0 to 100), Ragweed (common ragweed; Preemergence, 250 g ai/ha): 40 | Ragweed plant response rating (common ragweed; [8]): 0 | Plant response rating (0 to 100), Oat, Wild (wild oat; 31 g ai/ha): 20 | Plant response rating, Oat, Wild (wild oat; 62 g ai/ha): 50 | Plant response rating, Oat, Wild (wild oat; 250 g ai/ha): 60
